Legend:
[1] = (§1) The drug is tested on Z-027 corresponding to metagenome with ENA study accession number: PRJEB37062 and ENA sample accession number: ERS12561826 for biotransformation under anaerobic condition. The drug concentrations were measured over 9 timepoints collected between 0 and 24 hours of incubation by liquid-chromatography-coupled mass spectrometry (LC–MS); conditions: 2 µM
[2] = (§2) The drug is tested on WLS-240 corresponding to human gut metagenome with ENA study accession number: PRJEB37062 and ENA sample accession number: ERS12561773 for biotransformation under anaerobic condition. The drug concentrations were measured over 9 timepoints collected between 0 and 24 hours of incubation by liquid-chromatography-coupled mass spectrometry (LC–MS); conditions: 2 µM
[3] = as §1, with “Z-012” for “Z-027”, “ERS12561812” for “ERS12561826”; conditions: 2 µM
[4] = as §2, with “Z-003” for “WLS-240”, “pig” for “human”, “ERS12561803” for “ERS12561773”; conditions: 2 µM
[5] = as §2, with “WLS-010” for “WLS-240”, “ERS12561743” for “ERS12561773”; conditions: 2 µM
[6] = human gut metagenome, 24 h, 2 µM
[7] = as §2, with “Z-018” for “WLS-240”, “pig” for “human”, “ERS12561817” for “ERS12561773”; conditions: 2 µM
[8] = as §1, with “Z-010” for “Z-027”, “ERS12561810” for “ERS12561826”; conditions: 2 µM
[9] = human gut metagenome, 24 h, 2 µM; remark: listed apart in the source
[10] = as §2, with “Z-009” for “WLS-240”, “pig” for “human”, “ERS12561809” for “ERS12561773”; conditions: 2 µM
[11] = human gut metagenome, 24 h, 2 µM; remark: listed apart in the source
[12] = as §2, with “WLS-052” for “WLS-240”, “ERS12561747” for “ERS12561773”; conditions: 2 µM
[13] = human gut metagenome, 24 h, 2 µM; remark: listed apart in the source
[14] = human gut metagenome, 24 h, 2 µM; remark: listed apart in the source
[15] = as §2, with “Z-024” for “WLS-240”, “pig” for “human”, “ERS12561823” for “ERS12561773”; conditions: 2 µM
[16] = as §2, with “Z-019” for “WLS-240”, “rat” for “human”, “ERS12561818” for “ERS12561773”; conditions: 2 µM
[17] = as §2, with “Z-017” for “WLS-240”, “mouse” for “human”, “ERS12561816” for “ERS12561773”; conditions: 2 µM
[18] = human gut metagenome, 24 h, 2 µM; remark: listed apart in the source
[19] = as §2, with “WLS-310” for “WLS-240”, “ERS12561785” for “ERS12561773”; conditions: 2 µM
[20] = as §2, with “WLS-370” for “WLS-240”, “ERS12561793” for “ERS12561773”; conditions: 2 µM

Measured: Bacterial Biotransformation
Also: call rule not given here.

CCCc1nc2c(C)cc(-c3nc4ccccc4n3C)cc2n1Cc1ccc(-c2ccccc2C(=O)O)cc1
Compound NOT metabolized: [16]
Compound metabolized: all other assays above

CCCCC(=O)N(Cc1ccc(-c2ccccc2-c2nnn[nH]2)cc1)[C@H](C(=O)O)C(C)C
Compound NOT metabolized: [1] | [3] | [4] | [7] | [8] | [10] | [15] | [16] | [17]
Compound metabolized: all other assays above

CCCCCCOC(=O)/N=C(/N)c1ccc(NCc2nc3cc(C(=O)N(CCC(=O)OCC)c4ccccn4)ccc3n2C)cc1.CS(=O)(=O)O [DABIGATRAN ETEXILATE MESYLATE]
Compound NOT metabolized: [1] | [3] | [4] | [7] | [8] | [10] | [11] | [15] | [16] | [17] | [20]

O=c1[nH]c2ccccc2n1CCCN1CCC(n2c(=O)[nH]c3cc(Cl)ccc32)CC1 [DOMPERIDONE]
not listed: [5] | [11]
Compound NOT metabolized: all other assays above

C=CCN1CC[C@]23c4c5ccc(O)c4O[C@H]2C(=O)CC[C@@]3(O)[C@H]1C5 [NALOXONE]
Compound metabolized: [4] | [18]
not listed: [5]
Compound NOT metabolized: all other assays above

CCCc1nc(C(C)(C)O)c(C(=O)OCc2oc(=O)oc2C)n1Cc1ccc(-c2ccccc2-c2nnn[nH]2)cc1 [OLMESARTAN MEDOXOMIL]
Compound NOT metabolized: [1] | [2] | [6] | [9] | [16] | [18]
not listed: [5]
Compound metabolized: all other assays above

NC(=O)N1c2ccccc2CC(=O)c2ccccc21 [OXCARBAZEPINE]
Compound metabolized: [4] | [7] | [8] | [10] | [11] | [15] | [20]
not listed: [5]
Compound NOT metabolized: all other assays above

COC(=O)[C@H]1[C@H]2C[C@@H]3c4[nH]c5cc(OC)ccc5c4CCN3C[C@H]2C[C@@H](OC(=O)c2cc(OC)c(OC)c(OC)c2)[C@@H]1OC [RESERPINE]
Compound metabolized: [5] | [9] | [18] | [19] | [20]
not listed: [6]
Compound NOT metabolized: all other assays above
